Reference: patent EP2435019B1, “DODECA-2E,4E-DIENE AMIDES AND THEIR USE AS MEDICAMENTS AND COSMETICS” (Dr. August Wolff GmbH & Co. KG Arzneimittel, priority 2009, dated 2010)

What was measured:
[1] = Critical micelle concentration (CMC) measurement, dye micellization; assay type: physicochemical; conditions: fluorescein dye micellization in water, pH 6.9, room temperature
[2] = tested on: Arachidonoylethanolamide Transport (AEAT); assay: Cellular uptake of [3H]-AEA in U937 cells (assay C); assay type: cell-based, Human; conditions: Homo sapiens, U-937, read-out: EC50 value, AEA re-uptake inhibition
Description: 5x10^5 cells were collected and suspended in 500 µL of sterile PBS (Sigma, San Louis, MO, US) using glass silanized tubes. Cells were pre-incubated 10 min at 37°C in presence of test compounds in a concentration range of 10^-8 - 10^-4 M or in presence of the same amount of solvent (control). Then a mixture of 50 nM [^3H]-AEA (60 Ci/mmol) (American Radiolabeled Chemicals, Inc., San Louis, MO, US) and 50 nM of nonradioactive AEA (Tocris Cookson Ltd., Bristol, UK) was added and samples were incubated at 37°C for different times in the range of 1-60 min. The reaction was stopped by rapid filtration over Whatman GF/C filters pre-soaked in 0,25 % BSA. […] The filters-bound radioactivity was measured using a Beckman LS6500 scintillation counter. Results were expressed as % of AEA uptake versus cells treated with solvent and the EC50 and IC50 values were calculated from the sigmoidal curves, which were generated using the GraphPad Prism (GraphPad Software, San Diego, CA, US).

[3] = tested on: [3H]-AEA uptake; assay: Cellular uptake of [3H]-AEA in human primary monocytes (assay C); assay type: cell-based; conditions: Figure 1(a), 1 µM
Description: (§1) • Figure 1: AEA re-uptake inhibition of 2E,4E-dieneamides 1 and 9 into human primary monocytes and U937 cells. […] Data are mean values ± SEM of 3 independent experiments in a sigmoidal dose-response curve. • Figure 2: Concentration-dependent effects of 4 and 5 on FAAH activity. […] The maximal inhibition (32%) of 5 was measured at 1 µM. Data are mean values ± SEM of 3 independent experiments. • Figure 3: Effects of low nM concentrations of N-alkylamide 7 on FAAH activity alone and in combination with the FAAH inhibitor URB597. […] Data are mean values ± SEM of 3 independent experiments. • Figure 4: 1 and 9 inhibit LPS-induced TNF-alpha release into culture medium (measured by ELISA). Human macrophages (10^6 cells) were stimulated with LPS (500 ng/ml) and treated with UCM707 and/or compounds 1 and 9 at 5 µM for 18 h. N = 3 ± SEM. • Figure 5: UCM707 (positive control) and compounds 1 and 9 diminish NO2^- production. Human macrophages (10^6 cells) were stimulated with LPS (500 ng/ml) and treated with UCM707 and/or compounds 1 and 9 at 5 µM for 18 h. Culture supernatants were assayed for nitrite levels, using the Griess reagent as a reflection of NO production. […]
Human lymphoma U937 cells were grown in RPMI 1640 medium (Invitrogen, Basel, Switzerland) supplemented with 10% fetal bovine serum, […] fungizone (amphotericin B), 100 units/ml penicillin, 100 µg/ml streptomycin, and 2 mM L-glutamine (all from Invitrogen) and selected for the cellular AEA uptake assay. […] The filters-bound radioactivity was measured using a Beckman LS6500 scintillation counter. Results were expressed as % of AEA uptake versus cells treated with solvent and the EC50 and IC50 values were calculated from the sigmoidal curves, which were generated using the GraphPad Prism (GraphPad Software, San Diego, CA, US).

[4] = tested on: TNF-alpha release; assay: LPS-induced TNF-alpha release from human macrophages (ELISA); assay type: cell-based; conditions: Figure 4; LPS 500 ng/ml; 5 µM for 18 h
Description: as §1

[5] = tested on: NO2^- production; assay: NO2- production in LPS-stimulated human macrophages (Griess reagent); assay type: cell-based; conditions: Figure 5; LPS 500 ng/ml; 5 µM for 18 h
Description: • Figure 1: AEA re-uptake inhibition of 2E,4E-dieneamides 1 and 9 into human primary monocytes and U937 cells. […] Data are mean values ± SEM of 3 independent experiments in a sigmoidal dose-response curve. • Figure 2: Concentration-dependent effects of 4 and 5 on FAAH activity. […] The maximal inhibition (32%) of 5 was measured at 1 µM. Data are mean values ± SEM of 3 independent experiments. • Figure 3: Effects of low nM concentrations of N-alkylamide 7 on FAAH activity alone and in combination with the FAAH inhibitor URB597. […] Data are mean values ± SEM of 3 independent experiments. • Figure 4: 1 and 9 inhibit LPS-induced TNF-alpha release into culture medium (measured by ELISA). Human macrophages (10^6 cells) were stimulated with LPS (500 ng/ml) and treated with UCM707 and/or compounds 1 and 9 at 5 µM for 18 h. N = 3 ± SEM. • Figure 5: UCM707 (positive control) and compounds 1 and 9 diminish NO2^- production. Human macrophages (10^6 cells) were stimulated with LPS (500 ng/ml) and treated with UCM707 and/or compounds 1 and 9 at 5 µM for 18 h. Culture supernatants were assayed for nitrite levels, using the Griess reagent as a reflection of NO production. Results are the mean ± SEM of four independent experiments performed in duplicate • Figure 6: In CB receptor expressing human HaCaT keratinocytes (10^6 cells) UCM707 (control) 1 and 9 like the endocannabinoid anandamide (each 5 µM) inhibited tolerogen (10 µg/ml) induced chemokine IL-8 (6h stimulation and incubation). N = 3 ± SEM.

CCCCCCC/C=C/C=C/C(=O)NCCO [Example 1, (2E,4E)-N-(2-hydroxyethyl)dodeca-2,4-diene amide]
CMC [1]: >10 µM
EC50 [2]: 1230 ± 305 nM
[3H]-AEA uptake inhibition [3]: potently inhibited
LPS-induced TNF-alpha release into culture medium [4]: inhibit
NO2^- production [5]: diminish

CCCCCCC/C=C/C=C/C(=O)NCCc1cccc(OC)c1 [Example 9, (2E,4E)-N-(3-methoxyphenethyl)dodeca-2,4-diene amide]
CMC [1]: >5 µM
EC50 [2]: 869 ± 172 nM
[3H]-AEA uptake inhibition [3]: potently inhibited
LPS-induced TNF-alpha release into culture medium [4]: inhibit
NO2^- production [5]: diminish
